Experimental data as given in patent US11840686B2, “Modulation of prekallikrein (PKK) expression” (Ionis Pharmaceuticals, Inc., priority 2013, dated 2023).
Strand notation (5' to 3'): a small letter for the sugar, then the base; units joined by * are phosphorothioate-linked, units joined directly phosphodiester-linked; [ ] holds rarer units or linkages, { } end groups; capitals alone tell only the bases. e = 2'-O-(2-methoxyethyl) (MOE); k = constrained ethyl (cEt); [5mC] = 5-methylcytosine; d = 2'-deoxy (DNA)

Test system: human PKK mRNA
Assay: Antisense inhibition of human PKK mRNA in HepaRG cells, 1,000 nM, MOE/deoxy/cEt oligonucleotides (Example 3)
Type: cell-based
Outline: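 Readout is percent PKK mRNA reduction against untreated controls, by real-time PCR (RTS3454) adjusted for total RNA via RIBOGREEN. Oligonucleotides, phosphorothioate gapmers of 16 nucleosides with cEt, MOE and deoxy sugars, were delivered at 1,000 nM by electroporation to 20,000 HepaRG cells/well for roughly 24 h.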

[1] = HepaRG cells, 1,000 nM antisense oligonucleotide, Table 29
[2] = Table 28, HepaRG cells, 1,000 nM antisense oligonucleotide, human PKK mRNA
[3] = PKK mRNA, HepaRG cells, 1,000 nM antisense oligonucleotide, Table 31
[4] = HepaRG cells, electroporation with 1,000 nM antisense oligonucleotide, approx. 24 hours, PKK mRNA by RT-PCR (RTS3454), relative to untreated control cells, Table 26 experiment
[5] = Table 30, human PKK mRNA, HepaRG cells, 1,000 nM antisense oligonucleotide
[6] = HepaRG cells, electroporation with 1,000 nM antisense oligonucleotide, approximately 24 hours, primer probe set RTS3454, relative to untreated control cells, experiment of Table 23

Substance: 548602 (eG*eG*kT*dG*dG*dT*dG*dG*dA*dA*dT*dT*dG*kG*kT*eG; antisense) [compound 548602]
- % inhibition [1]: 20%

Substance: 548550 (antisense e[5mC]*e[5mC]*kG*dG*d[5mC]*d[5mC]*dT*dG*dG*dA*dT*dA*d[5mC]*kA*kG*e[5mC]) [compound 548550]
- % inhibition [1]: 0%

Substance: 548499 (antisense eA*eT*kA*d[5mC]*d[5mC]*d[5mC]*dG*dG*dA*dG*dT*d[5mC]*dA*kG*kG*eA) [compound 548499]
- % inhibition [2]: 56%

Substance: 548635 (antisense eA*eG*kG*dT*dG*dT*dG*dG*d[5mC]*dG*d[5mC]*dG*d[5mC]*kG*k[5mC]*e[5mC]) [compound 548635]
- % inhibition [3]: 18%

Substance: 548271 (antisense eT*eT*k[5mC]*dA*d[5mC]*dT*dT*dA*d[5mC]*d[5mC]*dA*d[5mC]*dA*kG*kG*eA) [compound 548271]
- % inhibition [4]: 56%

Substance: 548411 (antisense e[5mC]*eA*kG*dT*dA*dT*d[5mC]*dA*d[5mC]*dT*dG*dT*dA*k[5mC]*kT*eA) [compound 548411]
- % inhibition [5]: 72%

Substance: 548498 (antisense e[5mC]*e[5mC]*kG*dA*dT*dA*dA*d[5mC]*dA*dG*dA*d[5mC]*d[5mC]*kG*kG*e[5mC]) [compound 548498]
- % inhibition [2]: 71%

Substance: 548622 (antisense eT*eT*kT*d[5mC]*dT*dA*dT*dG*dG*dG*d[5mC]*d[5mC]*dT*kG*kA*e[5mC]) [compound 548622]
- % inhibition [3]: 0%

Substance: 548073 (e[5mC]*eT*kT*dT*d[5mC]*dT*d[5mC]*d[5mC]*dT*dT*d[5mC]*dG*dA*kG*kA*eA; antisense) [compound 548073]
- % inhibition (HepaRG cells, electroporation with 1,000 nM antisense oligonucleotide, approximately 24 hours, primer probe set RTS3454, relative to untreated control cells, experiment of Table 24): 24%

Substance: 547966 (antisense eA*eG*kG*dG*dT*dT*d[5mC]*dA*dG*dG*dT*dA*dA*kA*kG*eT) [compound 547966]
- % inhibition [6]: 13%

Substance: 548208 (e[5mC]*eT*k[5mC]*dT*dG*dG*dT*d[5mC]*dA*dA*dT*d[5mC]*dT*kG*kA*e[5mC]; antisense) [compound 548208]
- % inhibition (HepaRG cells, electroporation with 1,000 nM antisense oligonucleotide, approx. 24 hours, PKK mRNA by RT-PCR (RTS3454), relative to untreated control cells, Table 25 experiment): 19%

Substance: 548281 (antisense eG*eG*kT*dT*dG*dA*dG*dG*dG*dA*d[5mC]*dA*dG*kA*k[5mC]*eA) [compound 548281]
- % inhibition [4]: 0%

Substance: 548525 (antisense eG*eT*k[5mC]*dT*dA*dA*d[5mC]*dT*dG*dG*d[5mC]*d[5mC]*dT*kG*kG*e[5mC]) [compound 548525]
- % inhibition [2]: 2%

Substance: 547899 (eG*eT*kA*d[5mC]*dT*dT*dT*dA*dA*dT*dA*dG*dG*k[5mC]*kA*eA; antisense) [compound 547899]
- % inhibition (Table 20, HepaRG cells, electroporation with 1,000 nM antisense oligonucleotide, approximately 24 hours, PKK mRNA by RT-PCR (RTS3454), relative to untreated control cells): 49%
- % inhibition (Table 22 experiment, HepaRG cells, electroporation with 1,000 nM antisense oligonucleotide, approx. 24 hours, PKK mRNA by RT-PCR (RTS3454), relative to untreated control cells): 68%

Substance: 548541 (antisense eG*eG*k[5mC]*dA*d[5mC]*dT*dG*dG*dT*d[5mC]*dA*dT*dG*kG*kA*e[5mC]) [compound 548541]
- % inhibition [1]: 39%

Substance: 548145 (eA*eT*kG*d[5mC]*dA*dA*dA*dG*dA*dA*dG*dA*dT*kG*k[5mC]*e[5mC]; antisense) [compound 548145]
- % inhibition (Table 19, HepaRG cells, electroporation with 1,000 nM antisense oligonucleotide, approximately 24 hours, PKK mRNA by RT-PCR (RTS3454), relative to untreated control cells): 63%

Substance: 548478 (eG*eA*kG*d[5mC]*d[5mC]*dA*dT*d[5mC]*d[5mC]*dA*dG*dG*dG*kT*kG*e[5mC]; antisense) [compound 548478]
- % inhibition [2]: 53%

Substance: 547763 (antisense eG*eG*kT*dG*dA*dG*dT*d[5mC]*dT*d[5mC]*dT*dT*dG*kT*k[5mC]*eA) [compound 547763]
- % inhibition (Table 21 experiment, HepaRG cells, electroporation with 1,000 nM antisense oligonucleotide, approx. 24 hours, PKK mRNA by RT-PCR (RTS3454), relative to untreated control cells): 66%

Substance: 547993 (antisense eT*eA*kG*dA*dT*dA*dA*dT*d[5mC]*dT*dT*dA*dA*kG*kA*eA) [compound 547993]
- % inhibition [6]: 26%

Substance: 548395 (eA*eT*k[5mC]*d[5mC]*dT*dT*d[5mC]*d[5mC]*d[5mC]*d[5mC]*dT*d[5mC]*dG*k[5mC]*kA*eA; antisense) [compound 548395]
- % inhibition [5]: 0%

Substance: 548370 (eA*e[5mC]*kG*dA*dA*dG*dT*d[5mC]*dT*d[5mC]*dT*dT*dT*k[5mC]*k[5mC]*eT; antisense) [compound 548370]
- % inhibition (Table 27, HepaRG cells, 1,000 nM antisense oligonucleotide, human PKK mRNA): 53%

Substance: 548664 (antisense eG*e[5mC]*kG*dG*dG*dT*dG*dG*dT*d[5mC]*dT*dT*dG*k[5mC]*kA*e[5mC]) [compound 548664]
- % inhibition [3]: 38%
